Source: patent publication US6013795A, “Alpha-branched fluoroalkylcarbonyl fluorides and their derivatives” (3M Innovative Properties Company, priority 1996, dated 2000)

Test: surface tension of aqueous surfactant solutions and critical micelle concentration (K-12 Processor Tensiometer)
Assay type: physicochemical
Details: carboxylate salts, deionized water; Table 5
Source text: Critical Micelle Concentration (CMC): The critical micelle concentration is defined as the concentration at which further surface tension is no longer lowered with increasing levels of surfactant. […] Surface tension is then plotted vs. log concentration and the data points are connected. The resulting curve has a nearly horizontal flat portion at concentrations above the CMC and has a negative steep slope at concentrations below the CMC. The CMC is defined as the lowest surfactant concentration in the horizontal flat portion of the curve.
(§1) Then the critical micelle concentration (CMC) was determined for each surfactant.
as §1

Row | Compound | CMC | Surf. Tens. at the CMC
1 | O=C(O)C(F)(C(F)(F)F)C(F)(F)C(F)(F)C(F)(F)C(F)(F)C(F)(F)C(F)(F)C(F)(F)C(F)(F)F (centres unmarked) [Example M17, C8 F17 CF(CF3)COO^- H4 N^+] | 2300 ppm | 14.7 dynes/cm
2 | O=C(O)C(F)(C(F)(F)F)C(F)(F)C(F)(F)C(F)(F)C(F)(F)C(F)(F)C(F)(F)C(F)(F)C(F)(F)F (centres unmarked) [Example M24, C8 F17 CF(CF3)COO^- K^+] | 3000 ppm | 16.4 dynes/cm
3 | O=C(O)C(F)(C(F)(F)F)C(F)(F)C(F)(F)C(F)(F)C(F)(F)C(F)(F)C(F)(F)C(F)(F)C(F)(F)C(F)(F)C(F)(F)F (centres unmarked) [Example M18, C10 F21 CF(CF3)COO^- H4 N^+] | 600 ppm | 14.8 dynes/cm
4 | O=C(O)C(F)(C(F)(F)F)C(F)(F)C(F)(F)C(F)(F)C(F)(F)C(F)(F)C(F)(F)C(F)(F)F (centres unmarked) [Example M23, C7 F15 CF(CF3)COO^- K^+] | 2500 ppm | 15.0 dynes/cm
5 | O=C(O)C(F)(C(F)(F)F)C(F)(F)C(F)(F)C(F)(F)C(F)(F)C(F)(F)C(F)(F)F (centres unmarked) [Example M25, C6 F13 CF(CF3)COO^- Na^+] | 10000 ppm | 19.8 dynes/cm
6 | O=C(O)C(F)(C(F)(F)F)C(F)(F)C(F)(F)C(F)(F)C(F)(F)C(F)(F)C(F)(F)C(F)(F)F (centres unmarked) [Example M30, C7 F15 CF(CF3)COO^- 1/2 [H3 N^+ C2 H4 NHC2 H4 N^+ H3]] | 3000 ppm | 16.2 dynes/cm

Same assay, conditions: deionized water; Table 3

Row | Compound | CMC | Surf. Tens. at the CMC | solubility remark
7 | C[N+](C)([O-])CCCNC(=O)C(F)(C(F)(F)F)C(F)(F)C(F)(F)C(F)(F)C(F)(F)C(F)(F)C(F)(F)C(F)(F)C(F)(F)C(F)(F)C(F)(F)F (centres unmarked) [Example E5, C10 F21 CF(CF3)CONH(CH2)3 N^+ (CH3)2 O^-] | 500 ppm | 17.1 dynes/cm | 
8 | C[N+](C)([O-])CCCNC(=O)C(F)(C(F)(F)F)C(F)(F)C(F)(F)C(F)(F)C(F)(F)C(F)(F)C(F)(F)C(F)(F)C(F)(F)F (centres unmarked) [Example E4, C8 F17 CF(CF3)CONH(CH2)3 N^+ (CH3)2 O^-] | 20 ppm | 16.5 dynes/cm | 
9 | C[n+]1ccc(C(=O)NCCOC(=O)C(F)(C(F)(F)F)C(F)(F)C(F)(F)C(F)(F)C(F)(F)C(F)(F)C(F)(F)C(F)(F)F)cc1 (centres unmarked) [Example F1] | 500 ppm | 15.0 dynes/cm | 
10 | C8 F17 CF(CF3)CO(OCH2 CH2)16 OCH3 [Example J1] | 150 ppm | 22 dynes/cm | 
11 | C[N+](C)([O-])CCCNC(=O)C(F)(C(F)(F)F)C(F)(F)C(F)(F)C(F)(F)C(F)(F)C(F)(F)C(F)(F)C(F)(F)F (centres unmarked) [Example E1, C7 F15 CF(CF3)CONH(CH2)3 N^+ (CH3)2 O^-] | 20 ppm | 16.3 dynes/cm | 
12 | C[N+](C)([O-])CCCNC(=O)C(F)(C(F)(F)F)C(F)(F)C(F)(F)C(F)(F)C(F)(F)C(F)(F)F (centres unmarked) [Example E2, C5 F11 CF(CF3)CONH(CH2)3 N^+ (CH3)2 O^-] | 500 ppm | 17.5 dynes/cm | 
13 | C[N+](C)([O-])CCCNC(=O)C(F)(C(F)(F)C(F)(F)C(F)(F)F)C(F)(F)C(F)(F)C(F)(F)C(F)(F)C(F)(F)C(F)(F)C(F)(F)F (centres unmarked) [Example E7, C7 F15 CF(C3 F7)CONH(CH2)3 N^+ (CH3)2 O^-] |  |  | low solub.
14 | O=C([O-])CC[N+]1(CCCNC(=O)C(F)(C(F)(F)F)C(F)(F)C(F)(F)C(F)(F)C(F)(F)C(F)(F)C(F)(F)C(F)(F)F)CCOCC1 (centres unmarked) [Example K3] | 1000 ppm | 19.2 dynes/cm | 
15 | C[N+](C)([O-])CCCN(CCO)C(=O)C(F)(C(F)(F)F)C(F)(F)C(F)(F)C(F)(F)C(F)(F)C(F)(F)C(F)(F)C(F)(F)F (centres unmarked) [Example E8, C7 F15 CF(CF3)CON(C2 H4 OH)(CH2)3 N^+ (CH3)2 O^-] |  | 16.6 dynes/cm | 
16 | C[N+](C)(CCCNC(=O)C(F)(C(F)(F)F)C(F)(F)C(F)(F)C(F)(F)C(F)(F)C(F)(F)C(F)(F)C(F)(F)F)CCC(=O)[O-] (centres unmarked) [Example K1, C7 F15 CF(CF3)CONH(CH2)3 N^+ (CH3)2 C2 H4 COO^-] |  | 16.6 dynes/cm | 
